Data: patent US8008258B2, “Cop 1 for treatment of inflammatory bowel diseases” (Yeda Research and Development Co. Ltd., priority 2003, dated 2011)
Marks after values point to notes of the source that are not given here.

Experiments:
[1] = system: TNBS-induced colitis; test: TNBS-induced colitis in BALB/c mice, oral GA treatment; type: in vivo; design: key to Macroscopic scoring of colon damage: Ulceration (max 10): 0 = completely normal, 10 = most severe ulceration; key to Macroscopic scoring of colon damage: Adhesion (max 2): adhesions score 0 to 2; key to Macroscopic scoring of colon damage: Diarrhea (max 1): diarrhea score 0 to 1; key to Macroscopic scoring of colon damage: Thickness (max 1): thickness score 0 to 1
Procedure: (§1) Induction of cholitis in mice. TNBS-colitis was induced by rectal instillation of 2,4,6-trinitrobenzene sulfonic acid 5% (w/v), mixed with an equal volume of ethanol, into anesthetized mice (100 μl/mouse). Each treatment group included 6-12 mice. Mice that died before day 4 were considered as treatment casualties and were not taken into consideration.
Assessment of colitis. Weight changes and survival were monitored daily. Five to eight days following TNBS instillation, mice were sacrificed and macroscopic as well as microscopic colonic damage was evaluated.
(§2) Macroscopic colonic scoring. Gross colonic damage was graded according to Reuter et al. (1996), using the combined values of the four standard macroscopic parameters: degree of colonic ulcerations (scale from 0—completely normal, to 10—most severe); intestinal and peritoneal adhesions (0 to 2); diarrhea (0 to 1); and thickness (0 to 1). The total score is the arithmetic sum of the four scores. The evaluation was performed in a blind procedure.
(§3) Microscopic scoring. Proximal, medial, and distal portions of colon were fixed in 10% phosphate-buffered formalin. Paraffin-embedded sections were stained with hematoxylin and eosin. The degree of histological damage and inflammation was graded according to Elson et al. (1996) using the combined values of the four microscopic parameters: extent (scale from 0—completely normal, to 2—involving more than one segment); inflammation (0—none to 3—severe); damage (0 to 3—severe transmural); and regeneration (0—complete re-eptihelization to 3—none). The total score is the arithmetic sum of the four scores. The evaluation was performed in a blind procedure.
Oral treatment—250 μg/day in PBS, fed by gastric intubation with an 18-gauge stainless steel feeding needle. Unless otherwise stated, feedings were performed on days-7, -5, -3, -1, 0, 2, 4 and 6, relative to the day of TNBS instillation.
Colitis was induced by TNBS in 50% ethanol. […] Colonic scoring was performed 7 or 8 days after disease induction. Mice that died during the first 2 days (usually around 20% in all groups) were considered as treatment casualties and thus are not presented; each group contained 4-7 mice that survived after day 2.

[2] = system: TNBS-induced colitis; test: TNBS-induced colitis in (SJL/JxBALB/c)F1 mice, various GA treatment modes; type: in vivo; conditions: for Decrease in the total macroscopic score versus untreated mice: 5 days after disease induction; for Decrease in the total macroscopic damage versus untreated mice: fed with GA
Procedure: as §1
Assessment of colitis. Weight changes and survival were monitored daily. […]
as §2, §3
Oral treatment—250 μg/day in PBS, fed by gastric intubation with an 18-gauge stainless steel feeding needle. Unless otherwise stated, feedings were performed on days-7, -5, -3, -1, 0, 2, 4 and 6, relative to the day of TNBS instillation. […]
To explore whether the beneficial effect of GA on TNBS-induced colitis is restricted to oral administration in the BALB/c strain or represents a more general effect, we studied the ability of GA administered by different routes and dosages to inhibit TNBS-induced colitis in two additional strains of mice.

[3] = Average of three experiments, GA oral 250 μg/mouse every other day from day −7, scoring 7 or 8 days after induction
[4] = Exp. No. 1, GA oral 250 μg/mouse every other day from day −7, scoring 7 or 8 days after induction
[5] = Exp. No. 2, GA oral 250 μg/mouse every other day from day −7, scoring 7 or 8 days after induction
[6] = Exp. No. 3, GA oral 250 μg/mouse every other day from day −7, scoring 7 or 8 days after induction
[7] = GA no colitis (GA oral without TNBS induction)
[8] = Timing study, GA oral 250 μg/mouse every other day starting day 0, 8 feedings
[9] = Timing study, GA oral 250 μg/mouse every other day starting day +2, 6 feedings
[10] = Timing study, GA oral 250 μg/mouse every other day starting day −3, 8 feedings
[11] = Timing study, GA oral 250 μg/mouse every other day starting day −7, 8 feedings
[12] = scoring 5 days after disease induction, GA injected daily (from day −7), 2.5 mg/mouse SC
[13] = scoring 5 days after disease induction, GA injected daily (from day −14), 2.5 mg/mouse SC
[14] = scoring 5 days after disease induction, GA injected once day −14, 5 mg/mouse SC in ICFA
[15] = scoring 5 days after disease induction, GA oral every other day (from day −7), 0.25 mg, 8 feedings
[16] = scoring 11 days after disease induction, GA injected daily (from day −7), 2.5 mg/mouse SC
[17] = scoring 11 days after disease induction, GA injected daily (from day −14), 2.5 mg/mouse SC
[18] = scoring 11 days after disease induction, GA injected once day −14, 5 mg/mouse SC in ICFA
[19] = scoring 11 days after disease induction, GA oral every other day (from day −7), 0.25 mg, 8 feedings

glatiramer acetate [GA]
Macroscopic scoring of colon damage: Adhesion (max 2) [1, 3]: 0.4 | Macroscopic scoring of colon damage: Diarrhea (max 1) [1, 3]: 0.2 | Macroscopic scoring of colon damage: Thickness (max 1) [1, 3]: 0.0 | Macroscopic scoring of colon damage: Ulceration (max 10) [1, 3]: 2.1 | Macroscopic scoring of colon damage: Adhesion (max 2) [1, 4]: 0.6 | Macroscopic scoring of colon damage: Diarrhea (max 1) [1, 4]: 0.0 | Macroscopic scoring of colon damage: Thickness (max 1) [1, 4]: 0.0 | Macroscopic scoring of colon damage: Total Score (max 14) [1, 4]: 1.6* | Macroscopic scoring of colon damage: Ulceration (max 10) [1, 4]: 1.0 | Macroscopic scoring of colon damage: Adhesion (max 2) [1, 5]: 0.5 | Macroscopic scoring of colon damage: Diarrhea (max 1) [1, 5]: 0.5 | Macroscopic scoring of colon damage: Thickness (max 1) [1, 5]: 0.0 | Macroscopic scoring of colon damage: Total Score (max 14) [1, 5]: 4.4* | Macroscopic scoring of colon damage: Ulceration (max 10) [1, 5]: 3.4 | Macroscopic scoring of colon damage: Adhesion (max 2) [1, 6]: 0.1 | Macroscopic scoring of colon damage: Diarrhea (max 1) [1, 6]: 0.0 | Macroscopic scoring of colon damage: Thickness (max 1) [1, 6]: 0.0 | Macroscopic scoring of colon damage: Total Score (max 14) [1, 6]: 2.1* | Macroscopic scoring of colon damage: Ulceration (max 10) [1, 6]: 2.0 | Macroscopic scoring of colon damage: Adhesion (max 2) [1, 7]: 0.0 | Macroscopic scoring of colon damage: Diarrhea (max 1) [1, 7]: 0.0 | Macroscopic scoring of colon damage: Thickness (max 1) [1, 7]: 0.0 | Macroscopic scoring of colon damage: Total Score (max 14) [1, 7]: 0.0 | Macroscopic scoring of colon damage: Ulceration (max 10) [1, 7]: 0.0 | Reduction in disease severity (total macroscopic score) versus control ([1]; GA oral feedings started seven days before TNBS, total of 8 feedings every other day): 5.2 fold | Reduction in disease severity (total macroscopic score) versus control ([1]; GA oral treatment started on the day of TNBS inoculation, or two days after disease induction): 2.2 fold | Reduction in disease severity (total macroscopic score) versus control ([1]; GA oral treatment started three days before induction): 2.75 fold | Mortality due to the disease process ([1]; GA oral, 8 days after induction): 20% | Reduction of average histological score versus colitis group ([1]; GA oral, day 7, p=0.007): 2.8 folds | Average histological score (from a maximal score of 12.0) ([1]; GA oral, mice surviving till day 7): 2.8 | Histological or macroscopic damage ([1]; GA treatment without TNBS induction): did not result in any histological or macroscopic damage | Macroscopic scoring of colon damage: Adhesion (max 2) [1, 8]: 0.7 | Macroscopic scoring of colon damage: Diarrhea (max 1) [1, 8]: 0.0 | Macroscopic scoring of colon damage: Thickness (max 1) [1, 8]: 0.0 | Macroscopic scoring of colon damage: Total Score (max 14) [1, 8]: 5.0* | Macroscopic scoring of colon damage: Ulceration (max 10) [1, 8]: 4.3 | Macroscopic scoring of colon damage: Adhesion (max 2) [1, 9]: 0.3 | Macroscopic scoring of colon damage: Diarrhea (max 1) [1, 9]: 0.0 | Macroscopic scoring of colon damage: Thickness (max 1) [1, 9]: 0.0 | Macroscopic scoring of colon damage: Total Score (max 14) [1, 9]: 5.0* | Macroscopic scoring of colon damage: Ulceration (max 10) [1, 9]: 4.7 | Macroscopic scoring of colon damage: Adhesion (max 2) [1, 10]: 0.5 | Macroscopic scoring of colon damage: Diarrhea (max 1) [1, 10]: 0.0 | Macroscopic scoring of colon damage: Thickness (max 1) [1, 10]: 0.0 | Macroscopic scoring of colon damage: Total Score (max 14) [1, 10]: 4.0* | Macroscopic scoring of colon damage: Ulceration (max 10) [1, 10]: 3.5 | Macroscopic scoring of colon damage: Adhesion (max 2) [1, 11]: 0.1 | Macroscopic scoring of colon damage: Diarrhea (max 1) [1, 11]: 0.0 | Macroscopic scoring of colon damage: Thickness (max 1) [1, 11]: 0.0 | Macroscopic scoring of colon damage: Total Score (max 14) [1, 11]: 2.1* | Macroscopic scoring of colon damage: Ulceration (max 10) [1, 11]: 2.0 | Decrease of total macroscopic damage versus control ([1]; average of three experiments, GA oral 250 μg/mouse, alternate days from day −7, 8 feedings): 3.8 fold | Macroscopic grade of representative colons (FIG. 1A) ([1]; colons from two TNBS-induced mice treated orally with GA (0.25 mg/mouse, 8 feedings), 7 days after TNBS, focal hyperemia only): 1 | Maximum weight loss (of body weight) ([1]; mice fed with GA, by day 3 after TNBS inoculation): 5% | Complete restoration of original weight ([1]; mice fed with GA, day after TNBS inoculation): ≤ 5 days | Decrease in the total macroscopic score versus untreated mice ([2]; GA daily injections from day −7): 3.5 fold | Decrease in the total macroscopic score versus untreated mice ([2]; GA daily injections from day −14): 4.6 fold | Complete weight restoration ([2]; GA injected daily (from day −7)): ≤ 6 days | Weight loss (of original weight) ([2]; GA injected daily (from day −7), 1 day after induction): 4% | Mortality ([2]; daily injection of GA (starting both 7 and 14 days before disease induction)): completely prevented mortality | Reduction in the histological score ([2]; daily injections (starting either 7 or 14 days before disease induction)): 6.6 fold | Inhibition of weight loss caused by TNBS colitis ([2]; daily-injected mice): major significant inhibition of weight loss | Decrease in the total macroscopic damage versus untreated mice ([2]; observed 5 days after TNBS inoculation): 1.8 fold | Decrease in the total macroscopic damage versus untreated mice ([2]; observed 11 days after TNBS inoculation): 1.7 fold | Reduction in the histological score ([2]; oral treatment): 1.8 fold | Mortality rate ([2]; oral treatment with GA, by day 8): 30% | Inhibition of weight loss caused by TNBS colitis ([2]; orally-treated mice): modest, statistically insignificant, inhibition of weight loss | Macroscopic scoring of colon damage: Adhesion (max 2) [2, 12]: 0.8 | Macroscopic scoring of colon damage: Diarrhea (max 1) [2, 12]: 0.4 | Macroscopic scoring of colon damage: Thickness (max 1) [2, 12]: 0.1 | Macroscopic scoring of colon damage: Total Score (max 14) [2, 12]: 2.7* | Macroscopic scoring of colon damage: Ulceration (max 10) [2, 12]: 1.4 | Macroscopic scoring of colon damage: Adhesion (max 2) [2, 13]: 0.4 | Macroscopic scoring of colon damage: Diarrhea (max 1) [2, 13]: 0.2 | Macroscopic scoring of colon damage: Thickness (max 1) [2, 13]: 0.1 | Macroscopic scoring of colon damage: Total Score (max 14) [2, 13]: 2.1* | Macroscopic scoring of colon damage: Ulceration (max 10) [2, 13]: 1.4 | Macroscopic scoring of colon damage: Adhesion (max 2) [2, 14]: 1.4 | Macroscopic scoring of colon damage: Diarrhea (max 1) [2, 14]: 0.3 | Macroscopic scoring of colon damage: Thickness (max 1) [2, 14]: 0.3 | Macroscopic scoring of colon damage: Total Score (max 14) [2, 14]: 6.4 | Macroscopic scoring of colon damage: Ulceration (max 10) [2, 14]: 4.4 | Macroscopic scoring of colon damage: Adhesion (max 2) [2, 15]: 1.0 | Macroscopic scoring of colon damage: Diarrhea (max 1) [2, 15]: 0.3 | Macroscopic scoring of colon damage: Thickness (max 1) [2, 15]: 0.3 | Macroscopic scoring of colon damage: Total Score (max 14) [2, 15]: 5.4 | Macroscopic scoring of colon damage: Ulceration (max 10) [2, 15]: 3.8 | Macroscopic scoring of colon damage: Adhesion (max 2) [2, 16]: 0.0 | Macroscopic scoring of colon damage: Diarrhea (max 1) [2, 16]: 0.0 | Macroscopic scoring of colon damage: Thickness (max 1) [2, 16]: 0.0 | Macroscopic scoring of colon damage: Ulceration (max 10) [2, 16]: 0.1 | Macroscopic scoring of colon damage: Adhesion (max 2) [2, 17]: 0.0 | Macroscopic scoring of colon damage: Diarrhea (max 1) [2, 17]: 0.0 | Macroscopic scoring of colon damage: Thickness (max 1) [2, 17]: 0.0 | Macroscopic scoring of colon damage: Ulceration (max 10) [2, 17]: 0.1 | Macroscopic scoring of colon damage: Adhesion (max 2) [2, 18]: 1.0 | Macroscopic scoring of colon damage: Diarrhea (max 1) [2, 18]: 0.2 | Macroscopic scoring of colon damage: Thickness (max 1) [2, 18]: 0.2 | Macroscopic scoring of colon damage: Total Score (max 14) [2, 18]: 3.7 | Macroscopic scoring of colon damage: Ulceration (max 10) [2, 18]: 2.3 | Macroscopic scoring of colon damage: Adhesion (max 2) [2, 19]: 0.6 | Macroscopic scoring of colon damage: Diarrhea (max 1) [2, 19]: 0.1 | Macroscopic scoring of colon damage: Thickness (max 1) [2, 19]: 0.2 | Macroscopic scoring of colon damage: Total Score (max 14) [2, 19]: 3.2 | Macroscopic scoring of colon damage: Ulceration (max 10) [2, 19]: 2.3 | Effect on macroscopic scores versus untreated controls ([2]; single injection of GA as a depot dose in ICFA): small and statistically insignificant
